Patent US8987167B2, “Low volatile amine salts of anionic pesticides” (BASF SE, priority 2009, dated 2015)
Read-outs that look alike come from different tables or passages of the source.

Key:
[1] = Volatility determined by TGA (thermal gravimetric analysis); format: physicochemical
Protocol: The volatility of the aqueous solutions of dicamba (480 g/l) or 2,4-D (250 g/l) as prepared in Example 1 was determined by analyzing the wt % loss per minute as calculated by the slope between 400 min and 1200 min of a TGA (thermal gravimetric analysis) analysis. The measurement conditions on a TA Instrument TGA Q50 were as follows: Pan type: Platinum; sample size 25 μl leveling uniformly on pan surface, balance purge flow 40 ml/min; sample purge flow 60 ml/min; temperature procedure: Start at 20° C., ramp 10° C./min to 100° C., then isothermal for 1200 min.
The volatility of the aqueous solutions of glyphosate salts as prepared in Example 6 was determined by analyzing the wt % loss per minute as described in Example 3.

[2] = 30% humidity; for Volatility after 2 weeks (wt % loss) / Volatility after 4 weeks (wt % loss): Petri dish, 480 g/l solution diluted 1:50, 50° C., forced air flow, loss of dicamba acid by HPLC
Protocol: A dicamba sample of the aqueous solutions of dicamba (480 g/l) as prepared in Example 1 (Table 1, entry 2) was diluted with distilled water in a ratio of 1:50. To help spreading of the samples uniformly on the surface of the plate, Silwet L-77 was added (0.1 wt %). A total of 300 μl of this diluted sample was applied per Petri dish (diameter 5 cm). The dishes were kept at an environment chamber (Barnstead Environ-Cab Lab-line 680A) with forced air flow (air vent out) up to one month at 50° C. and 30% humidity. Afterwards the plates were extracted with acetic acid/methanol and the pesticide quantified by HPLC (Columbus C18 column) to determine the volatile loss of dicamba acid.

[3] = pH 7
[4] = Dicamba salts, 480 g/l, TGA, normalized, dicamba acid = 100.0
[5] = Dicamba salts, aqueous solution 480 g/l, TGA isothermal at 100° C., slope between 400 min and 1200 min
[6] = soybean injury (epinasty and stunting) 14 days after 24 h vapour exposure to Petri dishes treated with 4480 g active ingredient per ha, normalized to 30% for the 2-(-aminoethoxy)ethanol salt
[7] = 2,4-D salts, 250 g/l, TGA, normed, dimethylamine salt = 100.0
[8] = 2,4-D salts, aqueous solution 250 g/l, TGA isothermal at 100° C., slope between 400 min and 1200 min
[9] = Glyphosate salts, aqueous solution 480 g/l, TGA

Protocol for soybean plants: Soybeans were grown in a 3 inch (7.6 cm) pots for approximately 10 days until the first trifoliate is unfolded (not fully expanded). […] Immediately after treatment, eight Petri dishes and two soybean plants were placed in a tray (25×51 cm) and covered with a plastic dome (25×51×20 cm). The covered trays were placed in a greenhouse with temperature maintained at 25-35° C. and 50-80% humidity. After 24 h of exposure, the plastic dome was removed.

SMILES: CN(CCCN)CCCN.COc1c(Cl)ccc(Cl)c1C(=O)O
- Volatility (normalized) [1]: 0.5
- Volatility (wt % loss per min) [1]: 0.0003 wt % loss per min
- Injury (%) (soybean plants; in vivo): 7%

SMILES: COc1c(Cl)ccc(Cl)c1C(=O)O.NCCNCCO [Dicamba salt: Aminoethylethanolamine, aminoethylethanolamine salt of dicamba]
- Volatility (normalized) [1, 4]: 3.1
- Volatility (wt % loss per min) [1, 5]: 0.0018 wt % loss per min
- volatility compared to commercial dicamba salt formulations (Petri dish) ([2]; 50° C., up to one month): reduced volatility compared to commercial dicamba salt formulations
- Volatility after 2 weeks (wt % loss) [2]: 6.2 wt % loss
- Volatility after 4 weeks (wt % loss) [2]: 20.6 wt % loss
- Injury (%) (soybean plants; [6]): 5%

SMILES: COc1c(Cl)ccc(Cl)c1C(=O)O.NCCNCCN [Dicamba salt: Diethylenetriamine]
- Volatility (normalized) [1, 4]: 0.7
- Volatility (wt % loss per min) [1, 5]: 0.0004 wt % loss per min
- Injury (%) (soybean plants; [6]): 14%

SMILES: CC1(C)CC(N)CC(C)(CN)C1.COc1c(Cl)ccc(Cl)c1C(=O)O [Dicamba salt: Isophorone diamine]
- Volatility (normalized) [1]: 0.4
- Volatility (wt % loss per min) [1, 5]: 0.0002 wt % loss per min
- Injury (%) (soybean plants; [6]): 19%

SMILES: CNC.O=C(O)COc1ccc(Cl)cc1Cl [2,4-D salt: Dimethylamine, reference compound]
- Volatility (normed) [1]: 100.0
- Volatility (wt % loss per min) [1]: 0.006 wt % loss per min

SMILES: NCCNCCN.O=C(O)COc1ccc(Cl)cc1Cl [2,4-D salt: Diethylenetriamine]
- Volatility (normed) [1, 7]: 13.7
- Volatility (wt % loss per min) [1, 8]: 0.0008 wt % loss per min

SMILES: CN(C)CCCN(C)CCCN(C)C.COc1c(Cl)ccc(Cl)c1C(=O)O [Dicamba salt: Jeffcat ZR-40]
- Volatility (normalized) [1, 4]: 5.0
- Volatility (wt % loss per min) [1, 5]: 0.0030 wt % loss per min

SMILES: CN(CCCN)CCCN.O=C(O)CNCP(=O)(O)O
- Volatility (wt % loss per min) [1]: 0.002 wt % loss per min

SMILES: COc1c(Cl)ccc(Cl)c1C(=O)O.NCCCN1CCOCC1 [aminopropylmorpholine (APM) salt of dicamba, reference compound]
- Volatility expected for a concentration of 480 g/l ([1]; dicamba salt, 480 g/l (solution could not be prepared), compared with 0.0021 wt % loss per min at 300 g/l): expected to be higher
- Volatility (wt % loss per min) ([1]; dicamba salt, aqueous solution 300 g/l, TGA): 0.0021 wt % loss per min
- solubility in water [3]: ≤ 300 mg/mL

SMILES: COc1c(Cl)ccc(Cl)c1C(=O)O.NCCOCCO [Dicamba salt: 2-(-Aminoethoxy)ethanol, dicamba 2-(-Aminoethoxy)ethanol salt, reference compound]
- Volatility (normalized) [1, 4]: 5.4
- Volatility (wt % loss per min) [1, 5]: 0.0032 wt % loss per min
- Volatility after 2 weeks (wt % loss) [2]: 29.3 wt % loss
- Volatility after 4 weeks (wt % loss) [2]: 57.0 wt % loss
- Injury (%) (soybean plants; [6]): 30%

SMILES: CN(C)CCCNCCCN(C)C.COc1c(Cl)ccc(Cl)c1C(=O)O [Dicamba salt: Jeffcat ® Z-130]
- Volatility (normalized) [1, 4]: 2.9
- Volatility (wt % loss per min) [1, 5]: 0.0017 wt % loss per min
- Injury (%) (soybean plants; [6]): 5%

SMILES: COc1c(Cl)ccc(Cl)c1C(=O)O [Dicamba acid, dicamba, reference compound]
- Volatility (normalized) [1, 4]: 100.0
- Volatility (wt % loss per min) [1, 5]: 0.060 wt % loss per min
- Injury (%) (soybean plants; [6]): 67%

SMILES: CC1(C)CC(N)CC(C)(CN)C1.O=C(O)CNCP(=O)(O)O (stereo not drawn) [Glyphosate salt: Isophorone diamine]
- Volatility (wt % loss per min) [1, 9]: 0.002 wt % loss per min

SMILES: CNC.COc1c(Cl)ccc(Cl)c1C(=O)O [Dicamba salt: Dimethylamine, dicamba dimethylamine salt, reference compound]
- Volatility (normalized) [1]: 17.8
- Volatility (wt % loss per min) [1]: 0.011 wt % loss per min
- Volatility after 2 weeks (wt % loss) [2]: 98.7 wt % loss
- Volatility after 4 weeks (wt % loss) [2]: 100 wt % loss
- Injury (%) (soybean plants; in vivo): 48%

SMILES: NCCNCCN.O=C(O)CNCP(=O)(O)O [Glyphosate salt: Diethylenetriamine, glyphosate diethylenetriamine salt, reference compound]
- Volatility (wt % loss per min) [1, 9]: 0.002 wt % loss per min

SMILES: NCCNCCO.O=C(O)COc1ccc(Cl)cc1Cl [2,4-D salt: Aminoethylethanolamine]
- Volatility (normed) [1, 7]: 35.7
- Volatility (wt % loss per min) [1, 8]: 0.002 wt % loss per min

SMILES: CN(C)CCCNCCCN(C)C.O=C(O)COc1ccc(Cl)cc1Cl [2,4-D salt: Jeffcat ® Z-130]
- Volatility (normed) [1, 7]: 14.8
- Volatility (wt % loss per min) [1, 8]: 0.0008 wt % loss per min

SMILES: COc1c(Cl)ccc(Cl)c1C(=O)O.NCCN1CCNCC1 [Dicamba salt: Aminoethylpiperazine]
- Volatility (normalized) [1, 4]: 0.4
- Volatility (wt % loss per min) [1, 5]: 0.0002 wt % loss per min
- Injury (%) (soybean plants; [6]): 19%

SMILES: NCCN1CCNCC1.O=C(O)CNCP(=O)(O)O [Glyphosate salt: Aminoethylpiperazine]
- Volatility (wt % loss per min) [1, 9]: 0.002 wt % loss per min
